The text below walks through data of patent US20070197510A1, “Nitriles and medicinal compositions containing the same as the active ingredient” (priority 2004, published 2007).

The test addresses T1, cathepsin K (Homo sapiens, UniProt P43235).
T1 sequence (P43235 115-329): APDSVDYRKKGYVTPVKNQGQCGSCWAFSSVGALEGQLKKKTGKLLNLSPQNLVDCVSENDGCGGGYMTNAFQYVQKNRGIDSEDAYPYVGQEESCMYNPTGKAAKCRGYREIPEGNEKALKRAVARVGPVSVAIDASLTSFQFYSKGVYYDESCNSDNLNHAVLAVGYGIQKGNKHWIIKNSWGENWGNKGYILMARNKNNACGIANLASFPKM
Briefly: Measurement of cathepsin K inhibitory activity. In kind it is biochemical. To be noted: fluorogenic substrate Boc-Ala-Gly-Pro-Arg-MCA, pH 5.5, 37° C. On the procedure:
(i) Measurement of Cathepsin k Inhibitory Activity
65 μL of Cathepsin K Enzyme Reaction Buffer (50 Mmol/L of 2-(N-morpholino)ethanesulfonate, 2 mmol/L of ethylenediaminetetraacetate (EDTA) and 4 mmol/L of dithiothreitol (DTT) were mixed to adjust to pH 5.5), 5 μL of cysteine protease inhibitor solution of several concentrations, 20 μL of synthesized substrate (t-butyloxycarbonyl-L-alanyl-glycyl-L-prolyl-L-arginine-[…]) solution of several concentrations and 10 μL of cathepsin K enzyme solution were mixed and the increase of fluorescence intensity when reacted at 37° C. was measured (λex (excitation wavelength)=355 nm, λem (fluorescence wavelength)=460 nm). As to the substrate and the compound of the present invention, enzyme reactions were carried […]

The molecule `CN1CCN(C(=O)CN2Cc3cnc(C#N)nc3N(CC(C)(C)C)C2=O)CC1` [Example 55(14), 8-(2,2-dimethylpropyl)-6-[2-(4-methyl-1-piperazinyl)-2-oxoethyl]-7-oxo-5,6,7,8-tetrahydropyrimido[4,5-d]pyrimidine-2-carbonitrile] returned an IC50 of 12 nM. `CC(C)(C)Cn1c2nc(C#N)ncc2c(=O)n1Cc1cccs1` [compound 8(2B), 1-(2,2-dimethylpropyl)-3-oxo-2-(2-thienylmethyl)-2,3-dihydro-1H-pyrazolo[3,4-d]pyrimidine-6-carbonitrile] yielded an IC50 of 2.9 nM.
